From patent publication US20150272934A1, “USE OF CSE INHIBITORS FOR THE TREATMENT OF CUTANEOUS INJURIES OR CONDITIONS AND SLEEP-RELATED BREATHING DISORDERS” (SOVA PHARMACEUTICALS, INC., priority 2012, published 2015)
Counter-ions that a name gives are not always drawn.

Target: human, mouse or rat recombinant CSE (UniProt P32929)
Assay: CSE In Vitro Assay
Conditions: not given

Row | SMILES | IC50
1 | CCN(N)c1nnn[nH]1 [Example 2-4] | < 10 µM
2 | CN(N)c1nnn(C)n1 [Example 2-29, 2-methyl-5-(1-methylhydrazinyl)-2H-tetrazole] | > 100 µM

Same assay, conditions: […]; species of enzyme not given

Row | SMILES | IC50
3 | NCCCN(N)c1nnn[nH]1 [Example 2-12, 3-(1-(1H-tetrazol-5-yl)hydrazinyl)propan-1-amine dihydrochloride] | < 10 µM
4 | N#CCC(N)c1nnn[nH]1 (stereo not shown) [Example 1-1, 3-amino-3-(1H-tetrazol-5-yl)propionitrile dihydrochloride] | > 100 µM
5 | COCCN(N)c1nnn[nH]1 [Example 2-6] | 10 to 100 µM

Same assay, conditions: recombinant CSE 20 ug/ml, 50 uM PLP, DL-homocysteine substrate, 3 hours 37° C.; species of enzyme not given

Row | IC50 | SMILES
6 | < 10 µM | C/C(=N\Nc1nnn[nH]1)c1ccc(N(C)C)cc1 [Example 2-22]
7 | > 100 µM | CCN(N)C(=O)NS(=O)(=O)c1ccccc1 [Example 2-35, 1-ethyl-N-(phenylsulfonyl)hydrazinecarboxamide]
8 | < 10 µM | C1CCC(=NNc2nnn[nH]2)CC1 [Example 2-23]
9 | 10 to 100 µM | C(=N\Nc1nnn[nH]1)/c1ccccc1 [Example 2-17, (E)-5-(2-benzylidenehydrazinyl)-1H-tetrazole]
10 | > 100 µM | CC(C)CN(N)c1nnn[nH]1 [Example 2-10]
11 | 10 to 100 µM | C#CC[C@H](N)C(=O)NS(=O)(=O)c1ccccc1 [Example 1-8, (S)-2-amino-N-(phenylsulfonyl)pent-4-ynamide hydrochloride]
12 | > 100 µM | C#CC[C@H](N)c1nc(C(F)(F)F)n[nH]1 [Example 1-5, (S)-1-(3-(trifluoromethyl)-1H-1,2,4-triazol-5-yl)but-3-yn-1-amine hydrochloride]
13 | > 100 µM | COCCCN(N)c1nnn[nH]1 [Example 2-5]
14 | > 100 µM | C#CC[C@H](N)c1nc(N)n[nH]1 [Example 1-6, (S)-5-(1-aminobut-3-ynyl)-1H-1,2,4-triazol-3-amine hydrochloride]
15 | < 10 µM | CC/C(C)=N/Nc1nnn[nH]1 [Example 2-25]
16 | 10 to 100 µM | CN(N)c1noc(=O)[nH]1 [Example 2-32, 3-(1-methylhydrazinyl)-1,2,4-oxadiazol-5(4H)-one hydrochloride]
17 | < 10 µM | Clc1ccc(/C=N/Nc2nnn[nH]2)cc1 [Example 2-20]
18 | < 10 µM | C#CC[C@H](N)c1ncn[nH]1 [Example 1-4, (S)-1-(1H-1,2,4-triazol-5-yl)but-3-yn-1-amine hydrochloride]
19 | > 100 µM | NN(Cc1ccccc1)c1nnn[nH]1 [Example 2-8]
20 | < 10 µM | CN(C)c1ccc(C(=O)C/C=N/Nc2nnn[nH]2)cc1 [Example 2-26, (E)-3-(2-(1H-tetrazol-5-yl)hydrazono)-1-(4-(dimethylamino)phenyl)propan-1-one]
21 | 10 to 100 µM | C#CC[C@H](N)C(=O)Nc1nn[nH]n1 [Example 1-7, (S)-2-amino-N-(2H-tetrazol-5-yl)pent-4-ynamide]
22 | 10 to 100 µM | C#CC[C@H](N)C(=O)NS(C)(=O)=O [Example 1-9, (S)-2-amino-N-(methylsulfonyl)pent-4-ynamide hydrochloride]
23 | > 100 µM | CCN(N)C(=O)Nc1nnn[nH]1 [Example 2-34, 1-ethyl-N-(1H-tetrazol-5-yl)hydrazinecarboxamide]
24 | < 10 µM | CNCCCN(N)c1nnn[nH]1 [Example 2-15]
25 | > 100 µM | CCN(N)c1ncn[nH]1 [Example 2-31, 5-(1-ethylhydrazinyl)-1H-1,2,4-triazole]
26 | < 10 µM | C1CCC(=NNc2nnn[nH]2)C1 [Example 2-24]
27 | < 10 µM | CC(C)=NN(C)c1nnn[nH]1 [Example 2-28, 5-(1-methyl-2-(propan-2-ylidene)hydrazinyl)-1H-tetrazole]
28 | 10 to 100 µM | CN(C)CCCN(N)c1nnn[nH]1 [Example 2-1, 3-(1-(1H-tetrazol-5-yl)hydrazinyl)-N,N-dimethylpropan-1-amine]
29 | 10 to 100 µM | CN(C)c1ccc(/C=N/Nc2nnn[nH]2)cc1 [Example 2-18]
30 | < 10 µM | C#CC[C@H](N)c1noc(=O)[nH]1 [Example 1-3, (S)-3-(1-aminobut-3-ynyl)-1,2,4-oxadiazol-5(4H)-one hydrochloride]
31 | < 10 µM | C#CC[C@H](N)c1nnn[nH]1 [Example 1-2, (S)-1-(1H-tetrazol-5-yl)-but-3-ynylamine hydrochloride]
32 | > 100 µM | Clc1ccc(/C=N/Nc2nnn[nH]2)c(Cl)c1 [Example 2-19]
33 | > 100 µM | CN(C)CCN(N)c1nnn[nH]1 [Example 2-2, 2-(1-(1H-tetrazol-5-yl)hydrazinyl)-N,N-dimethylethanamine]
34 | > 100 µM | CCN(N)C(=O)c1nnn[nH]1 [Example 2-33, N-ethyl-1H-tetrazole-5-carbohydrazide]
35 | 10 to 100 µM | CN(C)c1ccc(/C=N/N(C)c2nnn[nH]2)cc1 [Example 2-27, (E)-N,N-dimethyl-4-((2-methyl-2-(1H-tetrazol-5-yl)hydrazono)methyl)aniline]

Row | SMILES | IC50
36 | CN(N)c1nnn[nH]1 [Example 2-11] | < 10 µM
37 | CC(C)=NNc1nnn[nH]1 [Example 2-21] | < 10 µM
38 | NCCN(N)c1nnn[nH]1 [Example 2-13] | < 10 µM
39 | CNCCN(N)c1nnn[nH]1 [Example 2-14] | 10 to 100 µM
40 | C#CCN(N)c1nnn[nH]1 [Example 2-3, 5-(1-(prop-2-ynyl)hydrazinyl)-1H-tetrazole] | < 10 µM
41 | CC(C)N(N)c1nnn[nH]1 [Example 2-9] | > 100 µM
42 | CCCN(N)c1nnn[nH]1 [Example 2-7] | 10 to 100 µM

System: obstructive sleep apnea
Assay: not given
Conditions: twelve patients; cited from earlier work

Row | SMILES | decrease in occurrence of apnea episodes | decrease in sleep disruptions
43 | CN1CCN2c3ncccc3Cc3ccccc3C2C1 (stereo not shown) [mirtazapine] | 50% | 28%

System: deep partial thickness cutaneous burn injury, zone of stasis
Assay: Comb burn model for cutaneous burn
Format: in vivo, Sprague-Dawley rats
Conditions: L-propargylglycine 100 mg/kg IP Day 0; Compound 1 20 mg/kg PO once daily; 6-day time course; versus control animals

Row | SMILES | Viability of zones of stasis/interspaces on gross examination (burn progression)
44 | CN(N)c1nnn[nH]1 [Compound 1, 5-(1-methylhydrazinyl)-1H-tetrazole] | maintain viability

Same assay, conditions: within 48-72 hours; less injured versus worse/the same scale

Row | SMILES | Blinded photo grading of treated interspaces versus control interspaces
45 | CN(N)c1nnn[nH]1 [Compound 1, 5-(1-methylhydrazinyl)-1H-tetrazole] | less injured than controls

System: hypoxic ventilatory response
Assay: Dose response to dl-propargylglycine (PAG) in the rat hypoxic ventilatory response (HVR) assay
Format: in vivo, Sprague Dawley rats
Conditions: PAG 1 or 3 mg/kg IP; FiO2 21% to 10%
Procedure: Male Sprague Dawley rats weighing 343±17 g (Mean±SD); weight range 316-381 g, were obtained from Harlan Laboratories and maintained on a 12 hour light:dark cycle (6 am lights on) with food and water ad libitum.
DSI: Rat unrestrained whole body plethysmography chamber (˜8″ diameter plexiglass), ACQ 7700 Acquisition Interface, Validyne DP45 low range differential pressure transducers, Ponemah software.
dl-Propargyl Glycine (PAG) was obtained from Sigma (Cat #P7888; Lot#BCBD1765V) and solubilized in 0.9% NaCl. Drugs were prepared fresh on the day of use.
Test compounds were administered via the intraperitoneal route at a dose volume of 3 mUkg.
Animals were pre-habituated to the test environment on 3 separate 1-hour periods prior to the test day. Following administration of test compounds animals were placed inside the whole body plethysmography chamber. The animals were allowed to acclimate to the environment for 60 minutes while breathing a 21% O2 balance N2 gas mix. After acclimation, the following gas mix protocol was followed:
Cycles were designated to be the periods of both normoxia and hypoxia. Each experiment consisted of 3 cycles (or repeated sets) of the HVR to a normoxic-hypoxic shift. The cycles were 30 minutes in duration to allow for serial sampling from baseline and all 4 WBP test chambers. Each sampling period was of 4 minutes duration and was in a varying order but was always preceded by a 4 minute baseline. The sampling periods were calculated to allow for equilibration of the gas mixture in the WBP chamber. Switching of the multiplexer (MUX) line sampler system was achieved through use of a user defined program. The gas mixtures were likewise switched automatically using a user defined custom mix program and the Sable Systems/Alicat Multi Flow Controller utility.
Analysis of data was performed in GraphPad Prism (v5) using embedded 1-way Analysis of Variance (ANOVA) followed by Dunnett's or Tukey's MCT post hoc testing where appropriate. Dual data sets were analyzed using the Student's t-test. Bartlett's Equal Variance tests were performed on all data sets, however failure of equal variance was not considered to impinge the validity of the test.

Row | SMILES | Increase in minute ventilation (VE) from normoxia to hypoxia
46 | C#CCC(N)C(=O)O (racemic) [PAG, dl-Propargylglycine] | not

Same assay, conditions: PAG 10, 30 and 100 mg/kg; both normoxic and hypoxic conditions; p<0.05

Row | SMILES | VH2O
47 | C#CCC(N)C(=O)O (racemic) [PAG, dl-Propargylglycine] | significantly impacted

Same assay, conditions: PAG 10, 30 and 100 mg/kg; compared to saline, p<0.05

Row | SMILES | VE at 10% FiO2
48 | C#CCC(N)C(=O)O (racemic) [PAG, dl-Propargylglycine] | significantly reduced

Same assay, conditions: PAG 10, 30 or 100 mg/kg IP; FiO2 21% to 10%

Row | SMILES | Increase in minute ventilation (VE) from normoxia to hypoxia
49 | C#CCC(N)C(=O)O (racemic) [PAG, dl-Propargylglycine] | blunted

Same assay, conditions: PAG 10 and 100 mg/kg; compared to saline, p<0.05

Row | SMILES | VE at an FiO2 of 21%
50 | C#CCC(N)C(=O)O (racemic) [PAG, dl-Propargylglycine] | reduced significantly

Same assay, conditions: PAG 30 and 100 mg/kg IP; p<0.05 versus vehicle

Row | SMILES | Slope of the hypoxic ventilatory response (ΔVE, HVR)
51 | C#CCC(N)C(=O)O (racemic) [PAG, dl-Propargylglycine] | significantly reduced

Same assay, conditions: PAG below a dose of 10 mg/kg

Row | SMILES | Slope of the hypoxic ventilatory response (ΔVE)
52 | C#CCC(N)C(=O)O (racemic) [PAG, dl-Propargylglycine] | no effect

Same assay, conditions: normoxic conditions; PAG 10 and 100 mg/kg; p<0.05

Row | SMILES | VO2
53 | C#CCC(N)C(=O)O (racemic) [PAG, dl-Propargylglycine] | significantly decreased

Same assay, conditions: rat, in vivo

Row | SMILES | VCO2
54 | C#CCC(N)C(=O)O (racemic) [PAG, dl-Propargylglycine] | no effect
